In publication PMC2970562, “High-Affinity Inhibitors of Human NAD^+-Dependent 15-Hydroxyprostaglandin Dehydrogenase: Mechanisms of Inhibition and Structure-Activity Relationships” (PLoS ONE, 2010):

Columns and labels:
human 15-PGDH [1] = target: T1, human 15-PGDH (Homo sapiens, UniProt P15428); experiment: Compound titrations of re-synthesized inhibitors in the kinetic assay; assay type: biochemical; details: 10 nM 15-PGDH, 30 µM PGE2, 200 µM NAD+, 25°C, lower percent substrate conversion; read-out: IC50, re-synthesized compounds
T1 construct: comprising residues 3–256 of the human HPGD gene (GenBank identifier: 1203982); His6 (GHHHHHH, behind the TEV site) (C, cleaved yes); made in house; host or cells: E. coli BL21(DE3)-R3
T1 sequence (P15428 3-256): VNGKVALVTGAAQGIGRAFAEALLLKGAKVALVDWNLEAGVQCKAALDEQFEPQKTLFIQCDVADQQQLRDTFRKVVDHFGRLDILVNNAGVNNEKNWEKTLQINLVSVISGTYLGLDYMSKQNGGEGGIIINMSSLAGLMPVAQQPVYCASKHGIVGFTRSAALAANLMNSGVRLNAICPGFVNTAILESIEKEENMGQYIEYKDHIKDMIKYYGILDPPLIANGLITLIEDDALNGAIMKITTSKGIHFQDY
Experimental: Kinetic studies were performed in 100 mM Tris buffer pH 8.0, containing 0.01% Tween-20 and 10 nM 15-PGDH enzyme. […] All inhibitor compounds were dissolved in 10% (v/v) DMSO at varying concentrations from which they were applied at 1∶5 ratio (resulting in a final concentration of 2% (v/v) DMSO in all assays). For each experiment an aliquot of purified enzyme was thawed freshly and pre-diluted to 10 µM in buffer I (5 mM Tris/HCl, pH 8.0, 150 mM NaCl, 0.01% Tween-20). All experiments were performed in white 384-well PCR microplates (Bio-Rad Laboratories, Inc.) in final assay volumes of 20 µL. Twelve-point compound titrations were set up from serially diluted stock solutions in 10% (v/v) DMSO. […] The initial rates recorded in compound titrations were plotted against -log[compound], and non-linear regression (Levenberg-Marquardt) fitting of the dose-response curve to the Hill equation [47] was performed to derive the IC50, using PRISM 5.0 (GraphPad Software, Inc.). For substrate/cofactor titrations, curves with initial rates plotted against the concentration of substrate or cofactor were fitted to the Michaelis-Menten equation, to derive maximal activities, V max, and Michaelis constants, K m. Fitting qualities were judged from the goodness of fit (R^2>0.98).

HADH2 (HSD17β10) = target: T2, HADH2 (HSD17β10) (Homo sapiens, UniProt Q99714); experiment: Selectivity screen, hydroxyacyl dehydrogenase (PubChem Assay ID 886)
T2 sequence (Q99714 1-261): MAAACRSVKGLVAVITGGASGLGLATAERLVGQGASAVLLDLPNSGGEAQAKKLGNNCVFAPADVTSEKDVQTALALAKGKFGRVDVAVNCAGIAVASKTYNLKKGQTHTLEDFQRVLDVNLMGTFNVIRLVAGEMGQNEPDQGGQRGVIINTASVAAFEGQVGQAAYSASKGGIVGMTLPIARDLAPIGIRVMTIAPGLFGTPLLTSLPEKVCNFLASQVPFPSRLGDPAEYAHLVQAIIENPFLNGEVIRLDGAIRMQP
Experimental: (§1) The list also includes two SDR enzymes, hydroxyacyl dehydrogenase (HADH2, also known as type-10 hydroxysteroid dehydrogenase, HSD17β10; PubChem Assay ID 886) and type-4 hydroxysteroid dehydrogenase (HSD17β4; PubChem Assay ID 893), and a medium-chain dehydrogenase/reductase (MDR), aldehyde dehydrogenase 1 (ALDH1A1; PubChem Assay ID 1030), each of which was tested using a similar experimental protocol to that used for 15-PGDH.

human 15-PGDH [2] = target: T1, human 15-PGDH; experiment: Differential scanning fluorimetry (DSF), thermal stabilization; assay type: binding; details: for ∆Tm [°C] NAD+: with 200 µM NAD+; for ∆Tm [°C] NAD+ / ∆Tm [°C] NADH / ∆Tm [°C] apo: 1 µM protein, compound 50 or 250 µM, N/A = no unfolding transition observed in DSF; for ∆Tm [°C] NADH: with 200 µM NADH; for ∆Tm [°C] apo: without cofactor
HSD17β4 = target: T3, HSD17β4 (Homo sapiens, UniProt P51659); experiment: Selectivity screen, type-4 hydroxysteroid dehydrogenase (PubChem Assay ID 893)
T3 sequence (P51659 1-736): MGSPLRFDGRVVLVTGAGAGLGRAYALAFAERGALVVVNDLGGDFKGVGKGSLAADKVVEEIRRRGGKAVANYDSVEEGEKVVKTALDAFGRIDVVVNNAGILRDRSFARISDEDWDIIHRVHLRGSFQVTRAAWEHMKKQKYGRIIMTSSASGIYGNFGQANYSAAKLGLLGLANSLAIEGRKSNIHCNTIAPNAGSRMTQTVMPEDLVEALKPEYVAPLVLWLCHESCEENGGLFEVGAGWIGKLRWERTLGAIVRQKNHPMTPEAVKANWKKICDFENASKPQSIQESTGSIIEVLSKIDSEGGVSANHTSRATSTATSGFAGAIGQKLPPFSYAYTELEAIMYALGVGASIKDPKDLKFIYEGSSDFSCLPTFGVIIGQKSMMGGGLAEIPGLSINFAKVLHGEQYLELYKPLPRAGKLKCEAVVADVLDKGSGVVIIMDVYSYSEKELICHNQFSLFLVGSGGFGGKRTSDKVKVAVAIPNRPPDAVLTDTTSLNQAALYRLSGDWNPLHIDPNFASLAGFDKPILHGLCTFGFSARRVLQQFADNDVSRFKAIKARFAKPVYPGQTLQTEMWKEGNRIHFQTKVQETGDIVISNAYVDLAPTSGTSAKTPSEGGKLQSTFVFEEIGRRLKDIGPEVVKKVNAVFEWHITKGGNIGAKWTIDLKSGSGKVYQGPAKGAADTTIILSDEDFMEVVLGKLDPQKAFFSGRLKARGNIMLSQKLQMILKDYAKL
Experimental: as §1

IC50 (human 15-PGDH [1]) [µM] | IC50 (HADH2 (HSD17β10)) [µM] | ΔTm in the presence of NAD+ (human 15-PGDH [2]) [°C] | ΔTm in the presence of NADH (human 15-PGDH [2]) [°C] | ∆Tm [°C] NAD+ (human 15-PGDH [2]) [°C] | ∆Tm [°C] NADH (human 15-PGDH [2]) [°C] | ∆Tm [°C] apo (human 15-PGDH [2]) [°C] | IC50 (HSD17β4) [µM] | SMILES
0.0079 ± 0.0008 | > 57.5 | 7.3±0.2 | 13.5±0.9 | 7.3 | 13.5 | -1.7 | > 57.5 | Cc1cccc(-n2cnc3cc(C(=O)N4CCCCC4)ccc32)c1 [Compound 13, [1-(3-methylphenyl)-1H-benzimidazol-5-yl)(piperidin-1-yl)methanone]
0.015 ± 0.0012 | > 57.5 | – | – | 5.0 | 10.5 | 0.1 | > 57.5 | Cc1cc(-c2nnc3n2CCCCC3)c(C)n1-c1ccccc1 [Compound 72]
